Measurements published in US20230293535A1, “ERBB/BTK INHIBITORS” (Dizal (Jiangsu) Pharmaceutical Co., Ltd., priority 2018, published 2023).

Columns and labels:
Format in all cases: cell-based
WT EGFR = target: T1, WT EGFR (Homo sapiens, UniProt P00533); test: WT EGFR cellular phosphorylation inhibition in A-431 (hEGF stimulated, MSD); settings: A431 cells, 4 h compound, then 100 ng/ml hEGF 10 min;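 further: electrochemiluminescence read-out of EGFR Tyr1068 phosphorylation expressed as ratio to total EGFR, cells kept in medium with 1% FBS, compounds tested as a concentration series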
T1 construct: host or cells: A-431

TMD-8 cells = test: BTK (wt) cell proliferation, TMD-8 (CellTiter-Glo, 72 h); settings: Homo sapiens, TMD8, 72 h, TMD-8 cells, 72 h, CellTiter-Glo; read-out: BTK WT TMD-8 GI50;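 further: viable cells quantified by ATP-based luminescence, proliferation expressed as percent of DMSO control after subtracting a time-zero baseline plate read at dosing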
Ri-1 cells = test: BTK (wt) cell proliferation, Ri-1 (CellTiter-Glo, 72 h); settings: Ri-1, 72 h, Ri-1 cells, 72 h, CellTiter-Glo; read-out: BTK WT Ri-1 GI50;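 further: viable cells quantified as cellular ATP luminescence, proliferation normalized to a time-zero plate and the DMSO control, compounds tested across a dilution series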
WT EGFR cell line A-431 = test: Cell proliferation, WT EGFR A431 (CellTiter-Glo, 72 h); settings: Homo sapiens, A-431, 72 h, A431, 72 h proliferation; read-out: EGFR WT A431 GI50;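 further: proliferation from a luminescent ATP viability signal, expressed as 100 × (treated minus time-zero plate) over (DMSO control minus time-zero plate), cells grown with 10% FBS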
EGFR L858R&T790M = target: T2, EGFR L858R&T790M (Homo sapiens, UniProt P00533, L858R/T790M); test: EGFR L858R and T790M cellular phosphorylation inhibition in NCI-H1975 (MSD); settings: NCI-H1975 cells, 4 h compound, p-EGFR(Y1068)/total EGFR; read-out: EGFR L858R and T790M mutation IC50;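 further: phosphorylated and total EGFR detected by electrochemiluminescence, cells exposed to compound in medium containing 1% FBS at 37 °C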
T2 construct: host or cells: NCI-H1975

[1] = target: T3, human EGFR exon 20 V769_D770insASV (Homo sapiens, UniProt P00533, INS769ASV); test: EGFR Exon20 ASV insertion cellular phosphorylation inhibition (MSD pEGFR Y1068/total EGFR); settings: Ba/F3 EGFR ASV ins cells, 4 h compound, p-EGFR(Y1068)/total EGFR;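 further: electrochemiluminescent readout on an MSD SECTOR Imager, IL3-independent transduced cells in medium with 1% FBS, compound concentration series at 37 °C and 5% CO2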
T3 construct: expressed in transfected cells; host or cells: Ba/F3 (DSMZ ACC-300), lentiviral transduction, puromycin selection, IL3 depletion

[2] = target: T4, human Her2 exon 20 insertion mutation YVMA (Homo sapiens, UniProt P04626, INS775YVMA); test: Her2 Exon 20 YVMA insertion cellular phosphorylation inhibition (MSD p-Her2 Y1248/total Her2); settings: Her2 YVMAins cells, 4 h compound;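 further: lentivirally transduced NIH-3T3 cells in 1% FBS medium, electrochemiluminescent MSD read-out, graded compound concentrations at 37 °C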
T4 construct: expressed in transfected cells; host or cells: NIH-3T3, lentiviral transduction, puromycin selection

OCI-LY-10 cells = test: BTK (wt) cell proliferation, OCI-LY-10 (CellTiter-Glo, 72 h); settings: Homo sapiens, OCI-Ly10, 72 h, OCI-LY-10 cells, 72 h, CellTiter-Glo; read-out: BTK WT OCI-LY-10 GI50;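 further: viable cells quantified via cellular ATP luminescence, proliferation given as percent of DMSO control after subtracting a duplicate plate read at time of dosing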
[3] = system: Her2 exon 20 insertion YVMA transduced NIH-3T3 cell line; test: Cell proliferation, Her2 YVMAins NIH-3T3 (CellTiter-Glo, 72 h); settings: Mus musculus, NIH3T3, 72 h, Her2 YVMAins cells, 72 h proliferation; read-out: Her2 Exon 20 YVMA insertion GI50;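 further: viable cells quantified by ATP luminescence, growth over a day-zero baseline plate expressed as percent of DMSO control growth, compound dilution series in 10% FBS medium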
DB cells = test: BTK (wt) cell proliferation, DB (CellTiter-Glo, 72 h); settings: Homo sapiens, DB, DB cells, CellTiter-Glo, read-out: Non-BCR activated DB GI50;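 further: DB cells in 384-well plates given a dilution series of compound, viable cells read by ATP luminescence, growth expressed versus DMSO control after subtracting a time-zero plate reading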
Description: OCI-LY-10 at 3,750 cells/well, TMD-8 and Ri-1 at 2,000 cells/well, and DB at 1,250 cells/well, respectively, were sorted into 384-well plates in RPMI1640 medium with 10% FBS. After overnight incubation, all cells were incubated with compound at a series of concentrations. Meanwhile, a duplicated plate of each cell line was prepared for measuring G0 value. The dosed plates were further incubated for 72 hours and the number of viable cells was measured by CellTiter-Glo® Luminescent Cell Viability Assay (Promega), a luminescent method for determining the number of viable cells through measurement of cellular ATP concentration using Envision plate reader (PerkinElmer). The percentage of proliferation was calculated as: % Proliferation = 100 × (G3 value of sample well - G0 value)/(G3 value of DMSO control - G0 value).

Ba/F3 EGFR ASV ins cells = test: Cell proliferation, Ba/F3 EGFR ASV ins (CellTiter-Glo, 72 h); settings: Ba/F3 EGFR, 72 h, Ba/F3 EGFR ASV ins, 72 h proliferation; read-out: EGFR Exon20 ASV insertion GI50;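 further: IL3-independent Ba/F3 cells transduced with EGFR V769_D770insASV, cellular ATP luminescence after compound exposure, growth relative to DMSO control with the day-0 baseline reading subtracted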
[4] = target: T5, human EGFR exon 20 H773_V774insNPH (Homo sapiens, UniProt P00533, INS773NPH); test: EGFR Exon20 NPH insertion cellular phosphorylation inhibition (MSD pEGFR Y1068/total EGFR); settings: Ba/F3 EGFR NPH ins cells, 4 h compound, p-EGFR(Y1068)/total EGFR;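 further: IL3-independent Ba/F3 cells with constitutively phosphorylated EGFR, compound exposure at 37 °C under 5% CO2, electrochemiluminescent MSD measurement of the p-EGFR to total EGFR ratio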
T5 construct: host or cells: Ba/F3
Description: One day before the test, WT or mutant cells were seeded in 96 well plates at appropriate concentrations with corresponding growth media supplemented with 1% FBS, and incubated overnight. The next day, tested compounds at a series of concentrations were added into each individual well of the plates, and the plates were incubated for 4 h at 37° C. with 5% CO2.
The EGFR (Y1068) phosphorylation level (activity) of cells in each well were then measured with MSD kit named “MULTI-SPOT®96 4-Spot HB Prototype EGFR Triplex [sequence]: pEGFR(Tyr1068),pEGFR(Tyr1173), Total EGFR” according to the manufacturer’s instruction (MESO SCALE DISCOVERY, Cat# N45ZB-1). The assay is an electrochemiluminescent method for determining both phosphorylated and total EGFR of cells with an MSD SECTOR® Imager and the ratio of p-EGFR/total EGFR can be generated by the machine.

Ba/F3 EGFR NPH ins cells = test: Cell proliferation, Ba/F3 EGFR NPH ins (CellTiter-Glo, 72 h); settings: Ba/F3 EGFR, 72 h, Ba/F3 EGFR NPH ins, 72 h proliferation; read-out: EGFR Exon20 NPH insertion GI50;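 further: IL3-independent cells carrying constitutively phosphorylated EGFR, compound dilution series, viable cells quantified by ATP luminescence, growth relative to DMSO wells after subtracting pre-dosing (day 0) baseline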
[5] = system: NCI-H1975 EGFR L858R/T790M cells; test: Cell proliferation, NCI-H1975 EGFR L858R/T790M (CellTiter-Glo, 72 h); settings: Homo sapiens, NCI-H1975, 72 h, NCI-H1975, 72 h proliferation; read-out: EGFR L858R and T790M mutation GI50;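 further: viable cells quantified by luciferase-based ATP luminescence, proliferation expressed relative to DMSO-treated wells (100%) after subtracting a parallel plate read at the time of dosing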

T2 sequence (P00533 25-1210 T790M/L858R): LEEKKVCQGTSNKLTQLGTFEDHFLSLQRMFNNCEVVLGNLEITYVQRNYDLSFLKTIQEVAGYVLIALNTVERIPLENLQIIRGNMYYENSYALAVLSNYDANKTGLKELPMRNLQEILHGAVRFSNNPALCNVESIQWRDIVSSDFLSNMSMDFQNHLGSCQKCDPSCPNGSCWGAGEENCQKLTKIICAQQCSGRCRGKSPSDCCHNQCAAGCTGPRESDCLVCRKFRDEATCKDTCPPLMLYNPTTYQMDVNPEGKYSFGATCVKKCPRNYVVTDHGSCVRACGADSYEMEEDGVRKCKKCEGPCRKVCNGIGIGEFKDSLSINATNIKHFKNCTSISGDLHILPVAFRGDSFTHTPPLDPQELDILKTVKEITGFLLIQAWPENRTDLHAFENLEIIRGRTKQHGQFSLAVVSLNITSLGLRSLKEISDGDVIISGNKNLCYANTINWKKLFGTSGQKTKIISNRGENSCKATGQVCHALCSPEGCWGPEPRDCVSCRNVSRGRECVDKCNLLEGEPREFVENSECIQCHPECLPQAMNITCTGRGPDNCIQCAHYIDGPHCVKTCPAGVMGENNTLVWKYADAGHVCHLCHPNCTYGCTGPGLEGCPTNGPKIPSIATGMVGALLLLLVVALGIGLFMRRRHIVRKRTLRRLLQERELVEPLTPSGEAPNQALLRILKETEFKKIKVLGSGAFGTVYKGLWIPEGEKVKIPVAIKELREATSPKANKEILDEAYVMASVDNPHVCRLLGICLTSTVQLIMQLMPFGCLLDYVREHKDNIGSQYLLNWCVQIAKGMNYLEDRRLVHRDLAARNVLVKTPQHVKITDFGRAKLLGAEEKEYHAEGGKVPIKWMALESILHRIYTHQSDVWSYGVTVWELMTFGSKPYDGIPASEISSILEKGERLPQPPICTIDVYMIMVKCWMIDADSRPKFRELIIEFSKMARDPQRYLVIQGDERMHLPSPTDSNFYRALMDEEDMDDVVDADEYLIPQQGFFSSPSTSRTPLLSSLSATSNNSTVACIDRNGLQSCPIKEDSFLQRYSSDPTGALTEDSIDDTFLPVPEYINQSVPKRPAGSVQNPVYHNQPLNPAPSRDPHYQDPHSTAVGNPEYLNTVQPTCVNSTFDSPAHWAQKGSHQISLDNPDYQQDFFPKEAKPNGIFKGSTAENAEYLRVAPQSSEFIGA
T4 sequence (P04626 with tags, fused parts or gaps INS775YVMA): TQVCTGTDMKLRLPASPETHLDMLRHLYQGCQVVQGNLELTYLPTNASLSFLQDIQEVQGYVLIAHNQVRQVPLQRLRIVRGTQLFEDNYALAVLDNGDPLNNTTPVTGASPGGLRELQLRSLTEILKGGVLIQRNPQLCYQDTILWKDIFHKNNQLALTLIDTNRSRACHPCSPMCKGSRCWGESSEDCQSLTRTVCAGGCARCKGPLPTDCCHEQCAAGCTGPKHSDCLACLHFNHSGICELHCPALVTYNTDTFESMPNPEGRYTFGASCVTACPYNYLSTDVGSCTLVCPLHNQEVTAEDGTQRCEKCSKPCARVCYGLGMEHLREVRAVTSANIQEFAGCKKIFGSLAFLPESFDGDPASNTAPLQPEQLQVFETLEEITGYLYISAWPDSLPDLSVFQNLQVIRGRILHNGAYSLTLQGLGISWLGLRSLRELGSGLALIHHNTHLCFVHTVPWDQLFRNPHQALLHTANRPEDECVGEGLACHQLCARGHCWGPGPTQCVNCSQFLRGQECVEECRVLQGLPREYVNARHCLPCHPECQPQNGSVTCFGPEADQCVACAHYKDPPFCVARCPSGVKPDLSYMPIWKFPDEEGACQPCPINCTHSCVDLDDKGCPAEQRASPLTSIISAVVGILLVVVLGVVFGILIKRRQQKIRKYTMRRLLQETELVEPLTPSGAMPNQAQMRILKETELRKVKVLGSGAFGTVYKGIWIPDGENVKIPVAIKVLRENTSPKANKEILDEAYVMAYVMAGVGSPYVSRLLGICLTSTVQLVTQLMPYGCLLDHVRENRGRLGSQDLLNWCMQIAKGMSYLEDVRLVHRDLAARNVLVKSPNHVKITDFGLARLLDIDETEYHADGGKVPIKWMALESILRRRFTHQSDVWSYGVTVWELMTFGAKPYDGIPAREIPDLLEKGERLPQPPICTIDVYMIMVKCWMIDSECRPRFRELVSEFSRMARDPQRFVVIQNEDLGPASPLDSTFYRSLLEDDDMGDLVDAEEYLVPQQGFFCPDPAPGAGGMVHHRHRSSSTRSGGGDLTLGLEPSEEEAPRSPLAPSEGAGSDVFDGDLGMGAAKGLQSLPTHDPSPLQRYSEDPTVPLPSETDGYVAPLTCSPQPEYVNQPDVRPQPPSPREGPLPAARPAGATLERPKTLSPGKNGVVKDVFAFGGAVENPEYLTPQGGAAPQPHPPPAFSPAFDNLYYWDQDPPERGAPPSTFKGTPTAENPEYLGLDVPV
T1 sequence (P00533 25-1210): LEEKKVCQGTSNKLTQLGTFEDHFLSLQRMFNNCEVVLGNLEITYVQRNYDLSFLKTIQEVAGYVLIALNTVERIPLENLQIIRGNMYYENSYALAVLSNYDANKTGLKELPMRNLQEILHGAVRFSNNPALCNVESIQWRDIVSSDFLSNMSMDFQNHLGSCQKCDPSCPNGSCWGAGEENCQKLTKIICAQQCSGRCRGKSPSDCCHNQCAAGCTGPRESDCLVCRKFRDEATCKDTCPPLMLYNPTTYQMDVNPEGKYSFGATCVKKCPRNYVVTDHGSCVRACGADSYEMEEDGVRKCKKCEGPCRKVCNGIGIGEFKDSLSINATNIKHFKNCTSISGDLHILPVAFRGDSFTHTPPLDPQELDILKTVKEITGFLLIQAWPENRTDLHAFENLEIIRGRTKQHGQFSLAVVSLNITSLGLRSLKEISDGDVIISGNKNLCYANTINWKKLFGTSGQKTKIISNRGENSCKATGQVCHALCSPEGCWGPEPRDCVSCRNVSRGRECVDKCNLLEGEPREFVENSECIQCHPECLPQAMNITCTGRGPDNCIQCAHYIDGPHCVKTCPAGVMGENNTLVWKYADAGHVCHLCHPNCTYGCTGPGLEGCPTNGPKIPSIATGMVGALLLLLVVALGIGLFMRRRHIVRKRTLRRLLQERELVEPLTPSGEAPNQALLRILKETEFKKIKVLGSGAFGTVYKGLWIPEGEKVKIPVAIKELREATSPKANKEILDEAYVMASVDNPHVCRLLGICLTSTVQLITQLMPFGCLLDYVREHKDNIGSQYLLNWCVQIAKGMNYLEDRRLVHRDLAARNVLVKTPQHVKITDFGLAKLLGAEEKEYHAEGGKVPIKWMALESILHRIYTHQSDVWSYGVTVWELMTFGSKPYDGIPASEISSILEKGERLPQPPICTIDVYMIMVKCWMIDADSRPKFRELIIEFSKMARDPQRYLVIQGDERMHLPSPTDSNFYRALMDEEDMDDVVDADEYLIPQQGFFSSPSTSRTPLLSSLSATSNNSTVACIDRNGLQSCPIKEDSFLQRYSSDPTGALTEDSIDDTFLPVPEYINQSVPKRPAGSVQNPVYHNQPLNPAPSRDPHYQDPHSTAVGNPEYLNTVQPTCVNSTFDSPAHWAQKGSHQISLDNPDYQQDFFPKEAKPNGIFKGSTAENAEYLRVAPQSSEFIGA
T5 sequence (P00533 with tags, fused parts or gaps INS773NPH): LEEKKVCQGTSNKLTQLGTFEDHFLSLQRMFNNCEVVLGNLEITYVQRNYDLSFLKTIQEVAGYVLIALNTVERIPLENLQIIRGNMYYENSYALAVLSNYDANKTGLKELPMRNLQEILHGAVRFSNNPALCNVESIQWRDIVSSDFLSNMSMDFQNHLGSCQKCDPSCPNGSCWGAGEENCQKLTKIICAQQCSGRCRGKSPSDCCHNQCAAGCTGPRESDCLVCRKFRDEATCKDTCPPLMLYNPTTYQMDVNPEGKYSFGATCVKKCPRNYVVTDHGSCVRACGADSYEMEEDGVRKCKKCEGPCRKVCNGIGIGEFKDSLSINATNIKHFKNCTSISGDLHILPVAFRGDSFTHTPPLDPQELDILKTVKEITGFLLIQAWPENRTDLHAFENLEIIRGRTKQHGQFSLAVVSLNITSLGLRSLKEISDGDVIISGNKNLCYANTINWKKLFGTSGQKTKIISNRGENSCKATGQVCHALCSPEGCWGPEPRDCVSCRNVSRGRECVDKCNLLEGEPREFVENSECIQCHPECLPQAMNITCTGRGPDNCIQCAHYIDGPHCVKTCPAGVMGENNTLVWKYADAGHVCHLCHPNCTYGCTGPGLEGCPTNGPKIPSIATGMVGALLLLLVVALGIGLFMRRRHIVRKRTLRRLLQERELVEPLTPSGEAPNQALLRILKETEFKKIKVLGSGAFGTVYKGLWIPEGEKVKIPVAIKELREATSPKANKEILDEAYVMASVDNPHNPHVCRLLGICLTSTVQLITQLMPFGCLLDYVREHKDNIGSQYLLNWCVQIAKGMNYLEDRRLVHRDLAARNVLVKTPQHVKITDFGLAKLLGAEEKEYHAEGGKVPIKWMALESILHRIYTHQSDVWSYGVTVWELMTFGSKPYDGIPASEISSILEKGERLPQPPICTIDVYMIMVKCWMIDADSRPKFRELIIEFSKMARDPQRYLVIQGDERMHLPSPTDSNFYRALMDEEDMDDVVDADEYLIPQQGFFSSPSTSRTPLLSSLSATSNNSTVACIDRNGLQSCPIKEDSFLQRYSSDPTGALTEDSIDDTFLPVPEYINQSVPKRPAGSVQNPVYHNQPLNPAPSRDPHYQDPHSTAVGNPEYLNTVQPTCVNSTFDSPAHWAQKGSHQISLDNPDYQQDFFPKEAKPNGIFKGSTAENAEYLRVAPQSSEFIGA

| Structure (SMILES) | IC50 (WT EGFR) | GI50 (TMD-8 cells) | GI50 (Ri-1 cells) | GI50 (WT EGFR cell line A-431) | IC50 (EGFR L858R&T790M) | IC50 [1] | IC50 [2] | GI50 (OCI-LY-10 cells) | GI50 [3] | GI50 (DB cells) | GI50 (Ba/F3 EGFR ASV ins cells) | IC50 [4] | GI50 (Ba/F3 EGFR NPH ins cells) | GI50 [5] |
| --- | --- | --- | --- | --- | --- | --- | --- | --- | --- | --- | --- | --- | --- | --- |
| C=CC(=O)Nc1cc(Nc2ncnc(Nc3ccccc3C3(O)CC3)n2)c(OC)cc1N(C)CCN(C)C [Compound 2, N-(2-((2-(dimethylamino)ethyl)(methyl)amino)-5-(4-(2-(1-hydroxycyclopropyl)phenylamino)-1,3,5-triazin-2-ylamino)-4-methoxyphenyl)acrylamide] | 21.3 nM | 130 nM | 86.6 nM | 26.6 nM | 0.5 nM | 13.4 nM | 4.6 nM | 134 nM | 45.2 nM | > 3000 nM | 42.2 nM | 19.7 nM | 56 nM | 13.9 nM |
| C=CC(=O)Nc1cc(Nc2ncnc(Nc3ccc(Cl)c(F)c3C(C)(C)O)n2)c(OC)cc1N(C)CCN(C)C [Compound 14, N-(5-(4-(4-chloro-3-fluoro-2-(2-hydroxypropan-2-yl)phenylamino)-1,3,5-triazin-2-ylamino)-2-((2-(dimethylamino)ethyl)(methyl)amino)-4-methoxyphenyl)acrylamide] | 31.3 nM | 102 nM | 136 nM | 29.1 nM | 1.1 nM | 26.5 nM | 15.8 nM | 155 nM | 58.7 nM | > 3000 nM | 84.1 nM | 38.4 nM | 55.4 nM | 18 nM |
| C=CC(=O)Nc1cc(Nc2ncnc(Nc3cc(F)c(F)cc3C(C)(C)O)n2)c(OC)cc1N1CC[C@@H](N(C)C)C1 [Compound 27, (R)-N-(5-(4-(4,5-difluoro-2-(2-hydroxypropan-2-yl)phenylamino)-1,3,5-triazin-2-ylamino)-2-(3-(dimethylamino)pyrrolidin-1-yl)-4-methoxyphenyl)acry lamide] | 34.8 nM | 11.6 nM | 120 nM | 26.2 nM | 0.7 nM | 19.4 nM | 15.6 nM | 17.7 nM | 106 nM | > 3000 nM | 64.7 nM | 28.3 nM | 57.9 nM | 5.2 nM |
| C=CC(=O)Nc1cc(Nc2ncnc(Nc3cc(F)c(Cl)cc3C(C)(C)O)n2)c(OC)cc1N(C)CCN(C)C [Compound 12, N-(5-(4-(4-chloro-5-fluoro-2-(2-hydroxypropan-2-yl)phenylamino)-1,3,5-triazin-2-ylamino)-2-((2-(dimethylamino)ethyl)(methyl)amino)-4-methoxyphenyl)acrylamide] | 7.6 nM | 34.5 nM | 51.2 nM | 14.2 nM | 0.3 nM | 6.4 nM | 3.4 nM | 27.8 nM | 24.5 nM | > 3000 nM | 25.3 nM | 10.8 nM | 21.5 nM | 8.4 nM |
| C=CC(=O)Nc1cc(Nc2ncnc(Nc3cnc(F)cc3C(C)(C)O)n2)c(OC)cc1N(C)CCN(C)C [Compound 3, N-(2-((2-(dimethylamino)ethyl)(methyl)amino)-5-(4-(6-fluoro-4-(2-hydroxypropan-2-yl)pyridin-3-ylamino)-1,3,5-triazin-2-ylamino)-4-methoxyphenyl) acrylamide] | 103 nM | 635 nM | > 3000 nM | 69.3 nM | 3.1 nM | 92.4 nM | 51.2 nM | 2510 nM | 183 nM | > 3000 nM | 252 nM | 296 nM | 307 nM | 55.6 nM |
| C=CC(=O)Nc1cc(Nc2nccc(Nc3cc(Cl)c(F)cc3C(C)(C)O)n2)c(OC)cc1N1CC(F)(F)C[C@@H]1CN(C)C [Compound 82, (R)-N-(5-(4-(5-chloro-4-fluoro-2-(2-hydroxypropan-2-yl)phenylamino)pyrimidin-2-ylamino)-2-(2-((dimethylamino)methyl)-4,4-difluoropyrrolidin-1-yl)-4-methoxyphenyl)acrylamide] | 97.8 nM | 203 nM | 310 nM | 42 nM | 0.9 nM | 17.2 nM | 7 nM | 76.1 nM | 82.4 nM | > 3000 nM | 77.7 nM | 13.8 nM | 35.8 nM | 3.6 nM |
| C=CC(=O)Nc1cc(Nc2ncnc(Nc3cc(Cl)c(F)cc3C(C)(O)CC)n2)c(OC)cc1N(C)CCN(C)C (centres unmarked) [Compound 67, N-(5-(4-(5-chloro-4-fluoro-2-(2-hydroxybutan-2-yl)phenylamino)-1,3,5-triazin-2-ylamino)-2-((2-(dimethylamino)ethyl)(methyl)amino)-4-methoxyphenyl)acrylamide] | 26.6 nM | 16 nM | 47.9 nM | 18.7 nM | 0.6 nM | 10.1 nM | 4.3 nM | 20.4 nM | 46.3 nM | > 3000 nM | 21.9 nM | 13.6 nM | 32.8 nM | 2.5 nM |
| C=CC(=O)Nc1cc(Nc2ncnc(Nc3cc(F)c(Cl)cc3C(C)(C)O)n2)c(OC)cc1N1CC[C@@H]2CN(C)C[C@@H]21 [Compound 41, N-(5-(4-(4-chloro-5-fluoro-2-(2-hydroxypropan-2-yl)phenylamino)-1,3,5-triazin-2-ylamino)-4-methoxy-2-((3aR,6aR)-5-methylhexahydropyrrolo[3,4-b]pyrrol-1 (2H)-yl)phenyl)acrylamide] | 13.1 nM | 4.57 nM | 4.92 nM | 13.8 nM | 0.8 nM | 6.7 nM | 9 nM | 1.57 nM | 52.1 nM | > 3000 nM | 21.8 nM | 12.6 nM | 23.2 nM | 1.6 nM |
| C=CC(=O)Nc1cc(Nc2nccc(Nc3cc(Cl)c(Cl)cc3C(C)(C)O)n2)c(OC)cc1N1CC[C@@H]1CN(C)C [Compound 71, (R)-N-(5-(4-(4,5-dichloro-2-(2-hydroxypropan-2-yl)phenylamino)pyrimidin-2-ylamino)-2-(2-((dimethylamino)methyl)azetidin-1-yl)-4-methoxyphenyl)a crylamide] | 213 nM | 4.8 nM | 23.5 nM | 34.9 nM | 1.3 nM | 31.1 nM | 19.6 nM | 12.4 nM | 86.2 nM | 2950 nM | 89.8 nM | 51 nM | 74.7 nM | 8.3 nM |
| C=CC(=O)Nc1cc(Nc2ncnc(Nc3cc(C4CC4)c(F)cc3C(C)(C)O)n2)c(OC)cc1N(C)CCN(C)C [Compound 75, N-(5-(4-(5-cyclopropyl-4-fluoro-2-(2-hydroxypropan-2-yl)phenylamino)-1,3,5-triazin-2-ylamino)-2-((2-(dimethylamino)ethyl)(methyl)amino)-4-methoxyphenyl)acrylamide] | 42.6 nM | 133 nM | 250 nM | 11.6 nM | 3.7 nM | 18.5 nM | 10.8 nM | 45.5 nM | 29.9 nM | > 3000 nM | 90.6 nM | 27.9 nM | 73 nM | 19.2 nM |
